Assay results published in ChEMBL document CHEMBL5291721, “A preclinical secondary pharmacology resource illuminates target-adverse drug reaction associations of marketed drugs” (Nat Commun, 2023).

Columns and labels:
Acetylcholinesterase = Acetylcholinesterase (Homo sapiens, UniProt P22303); type: functional
[1] = target: T1, 5-hydroxytryptamine receptor 1A (Homo sapiens, UniProt P08908)
T1 sequence (P08908 whole entry): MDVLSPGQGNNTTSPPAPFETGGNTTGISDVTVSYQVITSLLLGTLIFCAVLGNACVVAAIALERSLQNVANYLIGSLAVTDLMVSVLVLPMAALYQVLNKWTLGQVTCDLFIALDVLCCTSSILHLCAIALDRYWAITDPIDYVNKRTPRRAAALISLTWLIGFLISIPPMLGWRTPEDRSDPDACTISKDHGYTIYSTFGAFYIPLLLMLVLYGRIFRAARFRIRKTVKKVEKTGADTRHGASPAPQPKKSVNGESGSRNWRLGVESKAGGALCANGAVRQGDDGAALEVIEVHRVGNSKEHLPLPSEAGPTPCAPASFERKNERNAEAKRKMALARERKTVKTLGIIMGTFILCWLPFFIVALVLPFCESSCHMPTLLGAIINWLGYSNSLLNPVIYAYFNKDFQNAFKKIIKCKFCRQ

[2] = target: T2, Alpha-1A adrenergic receptor (Homo sapiens, UniProt P35348); type: functional, cell-based
T2 sequence (P35348 whole entry): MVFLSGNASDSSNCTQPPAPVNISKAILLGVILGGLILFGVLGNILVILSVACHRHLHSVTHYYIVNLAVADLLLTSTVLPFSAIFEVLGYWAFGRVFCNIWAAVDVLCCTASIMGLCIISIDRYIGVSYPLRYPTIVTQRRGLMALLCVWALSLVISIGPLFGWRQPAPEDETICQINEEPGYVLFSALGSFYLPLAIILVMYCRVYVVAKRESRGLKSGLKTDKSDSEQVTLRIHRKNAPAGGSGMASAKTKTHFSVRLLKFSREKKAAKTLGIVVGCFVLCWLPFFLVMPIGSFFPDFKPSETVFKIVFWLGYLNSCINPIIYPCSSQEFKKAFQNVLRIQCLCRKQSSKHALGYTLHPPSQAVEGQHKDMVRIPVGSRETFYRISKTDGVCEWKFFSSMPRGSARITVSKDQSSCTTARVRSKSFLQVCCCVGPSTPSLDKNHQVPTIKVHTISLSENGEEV

Mu-type opioid receptor = Mu-type opioid receptor (Homo sapiens, UniProt P35372)
[3] = target: Prostaglandin G/H synthase 1 (Homo sapiens, UniProt P23219); type: functional
[4] = target: Voltage-gated inwardly rectifying potassium channel KCNH2 (Homo sapiens, UniProt Q12809); type: functional; conditions: read-out: AC50
Thromboxane A2 receptor = target: T3, Thromboxane A2 receptor (Homo sapiens, UniProt P21731); type: functional, cell-based
T3 sequence (P21731 whole entry): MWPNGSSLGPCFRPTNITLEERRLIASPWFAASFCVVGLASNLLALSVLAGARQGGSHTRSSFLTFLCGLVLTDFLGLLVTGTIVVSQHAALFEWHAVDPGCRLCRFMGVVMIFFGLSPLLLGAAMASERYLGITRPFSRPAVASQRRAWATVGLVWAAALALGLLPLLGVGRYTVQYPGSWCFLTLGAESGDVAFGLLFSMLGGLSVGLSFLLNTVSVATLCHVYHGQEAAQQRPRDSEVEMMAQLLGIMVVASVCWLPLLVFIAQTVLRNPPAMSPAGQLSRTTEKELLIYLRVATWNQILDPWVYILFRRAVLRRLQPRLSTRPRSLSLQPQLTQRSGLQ

[5] = target: T4, Amine oxidase [flavin-containing] A (Homo sapiens, UniProt P21397); type: functional
T4 sequence (P21397 whole entry): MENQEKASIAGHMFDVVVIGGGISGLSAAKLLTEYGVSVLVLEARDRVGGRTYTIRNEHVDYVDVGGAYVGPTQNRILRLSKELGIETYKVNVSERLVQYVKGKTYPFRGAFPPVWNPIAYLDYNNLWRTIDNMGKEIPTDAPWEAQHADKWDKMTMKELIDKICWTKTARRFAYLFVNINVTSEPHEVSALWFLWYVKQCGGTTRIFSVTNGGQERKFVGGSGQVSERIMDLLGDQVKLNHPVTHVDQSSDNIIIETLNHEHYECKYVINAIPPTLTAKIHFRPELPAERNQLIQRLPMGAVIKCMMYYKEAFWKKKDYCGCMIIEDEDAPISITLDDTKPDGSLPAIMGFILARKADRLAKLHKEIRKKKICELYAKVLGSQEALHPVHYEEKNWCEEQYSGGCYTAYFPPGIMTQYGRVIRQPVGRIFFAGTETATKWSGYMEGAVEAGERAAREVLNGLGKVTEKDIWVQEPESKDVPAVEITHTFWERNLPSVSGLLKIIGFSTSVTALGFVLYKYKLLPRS

D(3) dopamine receptor = D(3) dopamine receptor (Homo sapiens, UniProt P35462)
[6] = target: 5-hydroxytryptamine receptor 2B (Homo sapiens, UniProt P41595); type: functional, cell-based
Adenosine receptor A3 = target: T5, Adenosine receptor A3 (Homo sapiens, UniProt P0DMS8)
T5 sequence (P0DMS8 whole entry): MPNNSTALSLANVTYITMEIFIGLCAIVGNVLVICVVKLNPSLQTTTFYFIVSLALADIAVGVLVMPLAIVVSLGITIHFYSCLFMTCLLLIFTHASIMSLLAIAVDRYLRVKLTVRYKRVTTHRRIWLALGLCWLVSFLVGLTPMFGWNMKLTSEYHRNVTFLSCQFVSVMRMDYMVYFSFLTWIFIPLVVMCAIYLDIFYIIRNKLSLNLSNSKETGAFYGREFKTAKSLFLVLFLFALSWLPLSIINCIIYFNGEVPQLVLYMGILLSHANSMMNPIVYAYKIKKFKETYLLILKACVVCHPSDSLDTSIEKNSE

Prothrombin = Prothrombin (Homo sapiens, UniProt P00734); type: functional
[7] = target: Sodium-dependent serotonin transporter (Homo sapiens, UniProt P31645)
[8] = target: Sodium-dependent dopamine transporter (Homo sapiens, UniProt Q01959)
[9] = target: cGMP-inhibited 3',5'-cyclic phosphodiesterase 3A (Homo sapiens, UniProt Q14432); type: functional
Also: assay procedure not described here.

Sequence of Acetylcholinesterase (P22303 whole entry): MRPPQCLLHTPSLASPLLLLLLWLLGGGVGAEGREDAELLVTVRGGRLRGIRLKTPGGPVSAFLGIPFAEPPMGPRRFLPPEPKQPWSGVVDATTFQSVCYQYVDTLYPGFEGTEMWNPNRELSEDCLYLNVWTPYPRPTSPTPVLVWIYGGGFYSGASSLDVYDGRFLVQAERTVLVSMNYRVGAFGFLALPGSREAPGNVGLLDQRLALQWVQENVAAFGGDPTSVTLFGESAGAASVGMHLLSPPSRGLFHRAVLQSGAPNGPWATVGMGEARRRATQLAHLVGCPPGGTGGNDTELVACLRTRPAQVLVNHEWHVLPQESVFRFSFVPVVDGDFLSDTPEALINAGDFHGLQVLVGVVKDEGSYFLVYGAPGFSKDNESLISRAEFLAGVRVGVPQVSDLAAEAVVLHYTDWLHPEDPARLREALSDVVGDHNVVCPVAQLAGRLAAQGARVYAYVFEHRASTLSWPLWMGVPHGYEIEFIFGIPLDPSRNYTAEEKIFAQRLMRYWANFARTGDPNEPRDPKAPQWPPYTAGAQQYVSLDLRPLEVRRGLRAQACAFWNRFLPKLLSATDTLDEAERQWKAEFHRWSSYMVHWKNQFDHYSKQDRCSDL
Sequence of cGMP-inhibited 3',5'-cyclic phosphodiesterase 3A (Q14432 whole entry): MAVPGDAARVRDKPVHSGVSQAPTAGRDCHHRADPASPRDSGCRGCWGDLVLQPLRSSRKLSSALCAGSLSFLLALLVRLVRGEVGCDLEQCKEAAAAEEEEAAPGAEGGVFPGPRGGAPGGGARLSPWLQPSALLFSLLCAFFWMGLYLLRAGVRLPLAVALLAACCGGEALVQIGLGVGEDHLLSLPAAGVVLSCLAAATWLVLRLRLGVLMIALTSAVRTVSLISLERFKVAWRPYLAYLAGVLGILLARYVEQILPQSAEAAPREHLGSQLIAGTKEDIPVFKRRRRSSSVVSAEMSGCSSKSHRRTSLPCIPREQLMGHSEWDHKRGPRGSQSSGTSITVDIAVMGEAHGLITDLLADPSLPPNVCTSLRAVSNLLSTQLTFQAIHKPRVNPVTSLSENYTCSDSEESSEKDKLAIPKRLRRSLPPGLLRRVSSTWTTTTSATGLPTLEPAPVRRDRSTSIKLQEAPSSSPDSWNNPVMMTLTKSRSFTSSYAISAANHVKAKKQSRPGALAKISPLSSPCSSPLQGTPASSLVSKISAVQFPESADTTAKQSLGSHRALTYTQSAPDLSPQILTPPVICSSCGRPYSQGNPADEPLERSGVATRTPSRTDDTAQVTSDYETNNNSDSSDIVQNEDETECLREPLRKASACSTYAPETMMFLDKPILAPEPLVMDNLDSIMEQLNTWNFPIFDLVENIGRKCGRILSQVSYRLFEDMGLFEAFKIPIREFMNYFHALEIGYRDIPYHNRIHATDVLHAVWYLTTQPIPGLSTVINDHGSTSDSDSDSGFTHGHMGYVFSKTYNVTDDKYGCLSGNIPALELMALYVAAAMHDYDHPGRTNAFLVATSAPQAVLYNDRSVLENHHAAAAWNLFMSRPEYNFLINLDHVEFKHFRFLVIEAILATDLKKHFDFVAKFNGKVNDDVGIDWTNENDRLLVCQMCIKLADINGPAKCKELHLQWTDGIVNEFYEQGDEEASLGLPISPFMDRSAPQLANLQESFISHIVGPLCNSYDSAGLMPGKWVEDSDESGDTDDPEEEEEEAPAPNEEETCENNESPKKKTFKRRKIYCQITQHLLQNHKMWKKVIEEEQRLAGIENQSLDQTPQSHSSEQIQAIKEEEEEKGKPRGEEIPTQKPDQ
Sequence of Mu-type opioid receptor (P35372 whole entry): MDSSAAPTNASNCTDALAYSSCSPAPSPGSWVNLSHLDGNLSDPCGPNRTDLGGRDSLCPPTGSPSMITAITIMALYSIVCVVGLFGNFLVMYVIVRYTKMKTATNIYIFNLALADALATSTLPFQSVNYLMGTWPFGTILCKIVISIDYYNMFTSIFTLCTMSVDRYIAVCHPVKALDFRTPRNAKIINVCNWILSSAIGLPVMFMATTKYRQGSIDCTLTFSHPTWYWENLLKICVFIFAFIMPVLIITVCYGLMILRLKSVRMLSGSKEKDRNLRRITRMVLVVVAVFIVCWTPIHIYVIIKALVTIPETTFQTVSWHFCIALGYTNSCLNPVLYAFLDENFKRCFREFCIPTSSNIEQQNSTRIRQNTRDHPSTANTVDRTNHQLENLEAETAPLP
Sequence of Prostaglandin G/H synthase 1 (P23219 whole entry): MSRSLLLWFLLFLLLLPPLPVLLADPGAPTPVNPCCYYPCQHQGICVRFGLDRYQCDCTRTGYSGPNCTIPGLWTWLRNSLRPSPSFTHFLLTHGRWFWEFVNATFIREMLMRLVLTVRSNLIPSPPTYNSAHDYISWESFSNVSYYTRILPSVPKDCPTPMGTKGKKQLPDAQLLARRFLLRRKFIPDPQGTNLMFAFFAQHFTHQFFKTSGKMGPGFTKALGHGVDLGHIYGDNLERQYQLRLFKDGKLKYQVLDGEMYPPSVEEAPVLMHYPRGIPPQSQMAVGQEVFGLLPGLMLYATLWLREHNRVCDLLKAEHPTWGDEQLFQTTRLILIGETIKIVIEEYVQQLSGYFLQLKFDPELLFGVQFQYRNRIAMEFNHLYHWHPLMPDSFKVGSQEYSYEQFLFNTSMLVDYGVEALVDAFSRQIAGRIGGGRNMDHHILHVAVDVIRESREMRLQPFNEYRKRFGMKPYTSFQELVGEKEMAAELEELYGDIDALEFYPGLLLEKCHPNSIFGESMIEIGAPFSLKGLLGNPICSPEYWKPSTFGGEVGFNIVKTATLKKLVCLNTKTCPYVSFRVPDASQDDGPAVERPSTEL
Sequence of D(3) dopamine receptor (P35462 whole entry): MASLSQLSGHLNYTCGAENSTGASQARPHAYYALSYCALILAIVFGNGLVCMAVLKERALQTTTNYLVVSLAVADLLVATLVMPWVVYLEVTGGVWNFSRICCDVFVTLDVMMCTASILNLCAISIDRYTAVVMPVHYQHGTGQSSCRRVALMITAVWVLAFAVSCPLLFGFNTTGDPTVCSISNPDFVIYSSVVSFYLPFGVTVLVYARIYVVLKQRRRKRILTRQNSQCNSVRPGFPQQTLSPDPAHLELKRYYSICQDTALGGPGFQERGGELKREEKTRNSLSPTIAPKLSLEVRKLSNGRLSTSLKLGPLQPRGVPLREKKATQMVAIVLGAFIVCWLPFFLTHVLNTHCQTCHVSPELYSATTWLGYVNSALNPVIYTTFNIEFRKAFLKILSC
Sequence of 5-hydroxytryptamine receptor 2B (P41595 whole entry): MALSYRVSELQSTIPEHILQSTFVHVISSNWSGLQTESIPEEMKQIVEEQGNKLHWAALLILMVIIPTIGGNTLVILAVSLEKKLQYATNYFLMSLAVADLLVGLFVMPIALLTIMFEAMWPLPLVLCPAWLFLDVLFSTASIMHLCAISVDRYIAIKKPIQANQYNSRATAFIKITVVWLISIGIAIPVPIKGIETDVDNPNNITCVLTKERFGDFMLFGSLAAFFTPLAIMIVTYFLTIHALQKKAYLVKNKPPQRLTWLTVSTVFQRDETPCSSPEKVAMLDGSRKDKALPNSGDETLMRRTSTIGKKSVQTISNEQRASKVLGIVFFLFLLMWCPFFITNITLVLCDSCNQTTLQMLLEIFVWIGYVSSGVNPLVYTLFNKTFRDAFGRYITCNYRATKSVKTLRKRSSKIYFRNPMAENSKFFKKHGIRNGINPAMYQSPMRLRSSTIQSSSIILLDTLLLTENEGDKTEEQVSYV
Sequence of Sodium-dependent serotonin transporter (P31645 whole entry): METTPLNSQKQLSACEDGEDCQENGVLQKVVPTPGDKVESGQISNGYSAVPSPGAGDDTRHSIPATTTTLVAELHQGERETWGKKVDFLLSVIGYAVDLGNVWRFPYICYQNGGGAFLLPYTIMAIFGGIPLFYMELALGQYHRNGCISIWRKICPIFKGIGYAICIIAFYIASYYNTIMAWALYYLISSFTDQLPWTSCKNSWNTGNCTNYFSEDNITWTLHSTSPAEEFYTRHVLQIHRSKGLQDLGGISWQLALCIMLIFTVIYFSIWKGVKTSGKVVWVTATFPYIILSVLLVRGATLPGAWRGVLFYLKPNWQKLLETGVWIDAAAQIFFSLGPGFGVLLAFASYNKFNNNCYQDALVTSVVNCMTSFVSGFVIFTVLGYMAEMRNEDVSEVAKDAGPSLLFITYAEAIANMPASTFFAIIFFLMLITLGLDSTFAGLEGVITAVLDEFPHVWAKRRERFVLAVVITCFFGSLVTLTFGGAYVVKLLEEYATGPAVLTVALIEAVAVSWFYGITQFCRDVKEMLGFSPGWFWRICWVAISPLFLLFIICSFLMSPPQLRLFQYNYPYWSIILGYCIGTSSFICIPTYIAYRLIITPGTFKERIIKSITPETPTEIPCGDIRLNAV
Sequence of Sodium-dependent dopamine transporter (Q01959 whole entry): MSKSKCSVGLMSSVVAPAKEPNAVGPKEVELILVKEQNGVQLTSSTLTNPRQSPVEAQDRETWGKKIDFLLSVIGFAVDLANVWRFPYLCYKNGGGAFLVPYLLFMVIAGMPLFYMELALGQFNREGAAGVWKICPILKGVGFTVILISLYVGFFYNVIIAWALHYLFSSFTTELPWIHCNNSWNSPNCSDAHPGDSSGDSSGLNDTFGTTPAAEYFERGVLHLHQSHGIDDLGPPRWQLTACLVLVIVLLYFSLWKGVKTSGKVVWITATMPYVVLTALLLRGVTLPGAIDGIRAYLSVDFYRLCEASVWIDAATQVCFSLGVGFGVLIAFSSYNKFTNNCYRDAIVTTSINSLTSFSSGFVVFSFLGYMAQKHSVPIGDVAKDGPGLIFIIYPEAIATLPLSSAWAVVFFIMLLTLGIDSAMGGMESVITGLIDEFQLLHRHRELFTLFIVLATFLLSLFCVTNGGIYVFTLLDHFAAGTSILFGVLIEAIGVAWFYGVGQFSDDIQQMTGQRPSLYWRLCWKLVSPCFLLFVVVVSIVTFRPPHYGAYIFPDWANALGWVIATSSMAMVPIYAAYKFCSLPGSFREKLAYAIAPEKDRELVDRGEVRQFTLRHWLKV

| SMILES | AC50 (Acetylcholinesterase) [µM] | AC50 [1] [µM] | AC50 [2] [µM] | AC50 (Mu-type opioid receptor) [µM] | AC50 [3] [µM] | AC50 [4] [µM] | AC50 (Thromboxane A2 receptor) [µM] | AC50 [5] [µM] | AC50 (D(3) dopamine receptor) [µM] | AC50 [6] [µM] | AC50 (Adenosine receptor A3) [µM] | AC50 (Prothrombin) [µM] | AC50 [7] [µM] | AC50 [8] [µM] | AC50 [9] [µM] |
| --- | --- | --- | --- | --- | --- | --- | --- | --- | --- | --- | --- | --- | --- | --- | --- |
| Cc1ccc2c([nH]c(=O)c3c(=O)cc(C(=O)OCCC(C)C)oc32)c1C | 6.76 | > 30 | > 30 | > 30 | > 30 | 23 | > 30 | > 30 | > 30 | > 10 | 0.0521 | > 30 | > 30 | > 30 | > 30 |
| COC(=O)N[C@H](C(=O)N1CC2(CC2)C[C@H]1c1ncc(-c2ccc3c(c2)C(F)(F)c2cc(-c4ccc5nc([C@@H]6[C@H]7CC[C@H](C7)N6C(=O)[C@@H](NC(=O)OC)C(C)C)[nH]c5c4)ccc2-3)[nH]1)C(C)C | > 30 | > 30 | > 30 | > 30 | > 30 | > 30 | > 30 | > 30 | > 10 | > 30 | > 10 | > 30 | > 30 | > 30 | > 30 |
| CC1(C)S[C@@H]2[C@H](NC(=O)[C@H](NC(=O)c3cnc4cccnc4c3O)c3ccccc3)C(=O)N2[C@H]1C(=O)O [APALCILLIN] | > 30 | > 30 | > 30 | > 30 | 17.6 | – | > 30 | > 30 | > 30 | > 30 | 29 | > 30 | > 30 | > 30 | > 30 |
| Cn1c(CCCC(=O)O)nc2cc(N(CCCl)CCCl)ccc21 [BENDAMUSTINE] | > 30 | > 30 | > 30 | > 30 | > 30 | – | > 30 | > 30 | > 30 | > 30 | > 30 | > 30 | > 30 | > 30 | > 30 |
| CC(C)Cc1ccc(C(C)C(=O)OCc2ccccn2)cc1 (stereo not drawn) [IBUPROFEN PICONOL] | > 30 | > 30 | > 30 | > 30 | > 30 | > 30 | > 30 | > 30 | – | > 30 | 15.8 | > 30 | > 30 | > 30 | > 30 |
| CCn1c(=O)c2c(nc(/C=C/c3ccc(OC)c(OC)c3)n2C)n(CC)c1=O [ISTRADEFYLLINE] | > 30 | 10.5 | > 30 | > 30 | > 30 | > 30 | > 30 | > 30 | – | > 30 | > 10 | – | > 30 | > 30 | > 30 |
| CC(=O)OCC(=O)[C@@]1(O)CC[C@H]2[C@@H]3C[C@H](C)C4=CC(=O)C=C[C@]4(C)[C@H]3[C@@H](O)C[C@@]21C [METHYLPREDNISOLONE ACETATE] | > 30 | > 30 | > 30 | > 30 | > 30 | – | > 30 | > 30 | > 30 | > 30 | > 30 | 11.9 | > 30 | > 30 | > 30 |
| COCC(=O)O[C@]1(CCN(C)CCCc2nc3ccccc3[nH]2)CCc2cc(F)ccc2[C@@H]1C(C)C [MIBEFRADIL] | > 30 | 0.746 | 1.58 | 0.979 | > 30 | – | 21.9 | > 30 | 0.825 | > 30 | 14.3 | > 30 | 22.8 | 9.53 | > 30 |
| CNC(=O)c1cnn(-c2nc(N)c3ncn([C@@H]4O[C@H](CO)[C@@H](O)[C@H]4O)c3n2)c1 [REGADENOSON ANHYDROUS] | > 30 | > 30 | > 30 | > 30 | > 30 | – | > 30 | > 30 | > 30 | > 30 | 0.481 | > 30 | > 30 | > 30 | > 30 |
| CC1(C)CCC(C)(C)c2cc(NC(=O)c3ccc(C(=O)O)cc3)ccc21 [TAMIBAROTENE] | > 30 | > 30 | > 10 | > 30 | > 30 | – | 28.7 | > 30 | > 30 | > 30 | 29.8 | > 30 | > 30 | > 30 | > 30 |
| COc1cc(C[C@@H]2NCCc3cc(O)c(O)cc32)cc(OC)c1OC [TRETOQUINOL] | > 30 | 7.31 | > 30 | 15.5 | > 30 | > 30 | – | > 30 | 1.81 | > 30 | > 30 | > 30 | > 30 | > 30 | > 30 |
| CCOC1O[C@H]([C@@H](COCc2ccccc2)OCc2ccccc2)[C@H](OCc2ccccc2)[C@H]1O (stereo partly drawn) [TRIBENOSIDE] | > 30 | > 30 | 15.2 | > 30 | > 30 | > 30 | > 30 | > 30 | – | > 30 | 14 | > 30 | > 30 | > 30 | > 30 |
| N[C@@H](Cc1ccc(O)cc1)C(=O)O [TYROSINE] | > 30 | > 30 | > 30 | > 30 | > 30 | – | > 30 | > 30 | > 30 | > 30 | > 30 | > 30 | > 30 | > 30 | > 30 |
